Article PMC3228261 (Chemistry (Weinheim an der Bergstrasse, Germany), 2011)
Read-outs that look alike come from different tables or passages of the source.

Columns and labels:
[1] = test system: human primary foreskin fibroblast (HFF) cells; assay: cells; conditions: 72 h, read-out: EC50 (HFF)
[2] = in vitro; conditions: human
[3] = test system: human primary foreskin fibroblast (HFF) cells; conditions: read-out: EC50 (HFF), viable cells after 72 h, triplicates
[4] = test system: L-929 mouse fibroblasts; assay: MTT test, growth inhibition of L-929 mouse fibroblasts; format: cell-based; conditions: read-out: IC50 (L929), 5 d incubation, MTT assay

SMILES: C/C1=C\[C@H](C)C[C@H](C)OC(=O)C[C@H](c2ccc(O)cc2)NC(=O)[C@@H](Cc2c(Br)[nH]c3ccccc23)N(C)C(=O)[C@H](C)NC(=O)[C@@H](C)C1 [jasplakinolide_np (1), jasplakinolide]
- EC50 [1]: 28 ± 4 nM
- EC50 at 72 h [2]: ~30 nM

SMILES: CO[C@@H]1C(=O)O[C@H](C)[C@@H](C)C=C(C)C[C@H](C)C(=O)N[C@@H](C)C(=O)N(C)[C@H](Cc2c(Cl)[nH]c3ccccc23)C(=O)NC1c1ccc(O)cc1 (stereo partly drawn) [chon B_np (3), chondramide B]
- EC50 [3]: 44 ± 5 nM

SMILES: CO[C@@H]1C(=O)O[C@H](C)[C@H](C)/C=C(\C)C[C@H](C)C(=O)N[C@@H](C)C(=O)N(C)[C@H](Cc2c[nH]c3ccccc23)C(=O)N[C@H]1c1ccc(O)cc1 [chon A_np (2a), chondramide A]
- EC50 [3]: 118 ± 23 nM
- IC50 [4]: 56 ± 13 nM

SMILES: C/C1=C\[C@@H](C)[C@@H](C)OC(=O)C[C@H](c2ccc(O)cc2)NC(=O)[C@@H](Cc2c[nH]c3ccccc23)N(C)C(=O)[C@H](C)NC(=O)[C@@H](C)C1 [chon C_np (4), chondramide C]
- EC50 [3]: 36 ± 7 nM
